According to patent publication US7964607B2, “Pyrazolo[3,4-d]pyrimidine compounds” (Pfizer Inc., priority 2007, dated 2011):
pIC50: −log10 of the molar value.

target: T1, human recombinant PDE9 enzyme (Homo sapiens, UniProt O76083); experiment: Phosphodiesterase 9 (PDE9) inhibitory activity, Scintillation Proximity (SPA) assay; assay type: biochemical; conditions: human recombinant PDE9 from SF-9 cells; 50 nM [3H]cGMP; room temperature, 30 min; additional compounds Ex. 115-228; read-out: G5678A (U):IC50
T1 construct: made in house; host or cells: SF-9 insect cells
Method in brief: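 Recombinant human PDE9 from SF-9 cell lysate supernatant, diluted so that ≤20% of [3H]cGMP substrate was hydrolysed to 5′GMP. Reaction started with enzyme and run 30 min at room temperature with 2% DMSO final. SPA beads were counted after >300 min; background came from a high concentration of a PDE inhibitor.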

T1 sequence (O76083 whole entry): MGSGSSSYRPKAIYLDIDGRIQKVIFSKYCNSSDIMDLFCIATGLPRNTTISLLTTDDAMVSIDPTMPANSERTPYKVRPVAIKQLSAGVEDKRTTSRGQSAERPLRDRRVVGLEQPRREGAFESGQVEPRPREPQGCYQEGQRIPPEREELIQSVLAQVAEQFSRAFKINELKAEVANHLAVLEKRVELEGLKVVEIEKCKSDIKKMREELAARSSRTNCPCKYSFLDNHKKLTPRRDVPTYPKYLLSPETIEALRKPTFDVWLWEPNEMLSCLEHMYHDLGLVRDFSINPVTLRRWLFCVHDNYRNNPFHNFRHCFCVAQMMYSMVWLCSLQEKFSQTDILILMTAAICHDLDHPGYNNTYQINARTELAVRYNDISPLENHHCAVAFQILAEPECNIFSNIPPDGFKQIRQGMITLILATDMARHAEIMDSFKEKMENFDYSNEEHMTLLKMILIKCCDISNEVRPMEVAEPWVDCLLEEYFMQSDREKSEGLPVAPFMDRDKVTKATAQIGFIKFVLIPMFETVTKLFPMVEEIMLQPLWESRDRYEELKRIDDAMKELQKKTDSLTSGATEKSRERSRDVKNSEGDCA

| Compound | pIC50 |
| --- | --- |
| CC(C)Oc1ccc(CN2C[C@@H](C)[C@H](c3nc4c(cnn4C4CCCC4)c(=O)[nH]3)C2)cc1 (racemic) [Example 188, 1-cyclopentyl-6-[(3,4-trans)-1-(4-isopropoxybenzyl)-4-methylpyrrolidin-3-yl]-1,5-dihydro-4H-pyrazolo[3,4-d]pyrimidin-4-one] | 7.14 |
| Cc1cc(C)c(CN2C[C@@H](C)[C@H](c3nc4c(cnn4C4CCCC4)c(=O)[nH]3)C2)c(C)c1 (racemic) [Example 191, 1-cyclopentyl-6-[(3,4-trans)-1-(mesitylmethyl)-4-methylpyrrolidin-3-yl]-1,5-dihydro-4H-pyrazolo[3,4-d]pyrimidin-4-one] | 6.70 |
| C[C@@H]1CN(Cc2c(Cl)cccc2Cl)C[C@H]1c1nc2c(cnn2C2CCCC2)c(=O)[nH]1 (racemic) [Example 192, 1-cyclopentyl-6-[(3,4-trans)-1-(2,6-dichlorobenzyl)-4-methylpyrrolidin-3-yl]-1,5-dihydro-4H-pyrazolo[3,4-d]pyrimidin-4-one] | 6.63 |
| COc1c(C)cnc(CN2C[C@@H](C)[C@H](c3nc4c(cnn4C4CCCC4)c(=O)[nH]3)C2)c1C (racemic) [Example 196, 1-cyclopentyl-6-{(3,4-trans)-1-[(4-methoxy-3,5-dimethylpyridin-2-yl)methyl]-4-methylpyrrolidin-3-yl}-1,5-dihydro-4H-pyrazolo[3,4-d]pyrimidin-4-one] | 6.73 |
| Cc1ccc(CN2C[C@@H](C)[C@H](c3nc4c(cnn4C4CCCC4)c(=O)[nH]3)C2)cc1C (racemic) [Example 198, 1-cyclopentyl-6-[(3,4-trans)-1-(3,4-dimethylbenzyl)-4-methylpyrrolidin-3-yl]-1,5-dihydro-4H-pyrazolo[3,4-d]pyrimidin-4-one] | 7.03 |
| C[C@@H]1CN(Cc2ccc3c(c2)OCCN3C)C[C@H]1c1nc2c(cnn2C2CCCC2)c(=O)[nH]1 (racemic) [Example 200, 1-cyclopentyl-6-{(3,4-trans)-4-methyl-1-[(4-methyl-3,4-dihydro-2H-1,4-benzoxazin-7-yl)methyl]pyrrolidin-3-yl}-1,5-dihydro-4H-pyrazolo[3,4-d]pyrimidin-4-one] | 6.75 |
| C[C@@H]1CN(CCCc2ccccc2)C[C@H]1c1nc2c(cnn2C2CCCC2)c(=O)[nH]1 (racemic) [Example 201, 1-cyclopentyl-6-[(3,4-trans)-4-methyl-1-(3-phenylpropyl)pyrrolidin-3-yl]-1,5-dihydro-4H-pyrazolo[3,4-d]pyrimidin-4-one] | 6.84 |
| C[C@@H]1CN(Cc2ccccc2C(F)(F)F)C[C@H]1c1nc2c(cnn2C2CCCC2)c(=O)[nH]1 (racemic) [Example 202, 1-cyclopentyl-6-{(3,4-trans)-4-methyl-1-[2-(trifluoromethyl)benzyl]pyrrolidin-3-yl}-1,5-dihydro-4H-pyrazolo[3,4-d]pyrimidin-4-one] | 6.98 |
| C[C@@H]1CN(CCCC(F)(F)F)C[C@H]1c1nc2c(cnn2C2CCCC2)c(=O)[nH]1 (racemic) [Example 203, 1-cyclopentyl-6-{(3,4-trans)-4-methyl-1-(4,4,4-trifluorobutyl)pyrrolidin-3-yl]-1,5-dihydro-4H-pyrazolo[3,4-d]pyrimidin-4-one] | 7.08 |
| C[C@@H]1CN(CC2CCCC2)C[C@H]1c1nc2c(cnn2C2CCCC2)c(=O)[nH]1 (racemic) [Example 205, 1-cyclopentyl-6-[(3,4-trans)-1-(cyclopentylmethyl)-4-methylpyrrolidin-3-yl]-1,5-dihydro-4H-pyrazolo[3,4-d]pyrimidin-4-one] | 6.54 |

These reach a higher pIC50. Values come first.

| pIC50 | Compound |
| --- | --- |
| 7.63 | C[C@@H]1CN(Cc2ccnc(C(C)(C)O)c2)C[C@H]1c1nc2c(cnn2C2CCCC2)c(=O)[nH]1 (racemic) [Example 189, 1-cyclopentyl-6-[(3,4-trans)-1-{[2-(1-hydroxy-1-methylethyl)pyridin-4-yl]methyl}-4-methylpyrrolidin-3-yl]-1,5-dihydro-4H-pyrazolo[3,4-d]pyrimidin-4-one] |
| 7.26 | C[C@@H]1CN(Cc2nc3c(s2)CCCC3)C[C@H]1c1nc2c(cnn2C2CCCC2)c(=O)[nH]1 (racemic) [Example 190, 1-cyclopentyl-6-[(3,4-trans)-4-methyl-1-(4,5,6,7-tetrahydro-1,3-benzothiazol-2-ylmethyl)pyrrolidin-3-yl]-1,5-dihydro-4H-pyrazolo(3,4-d]pyrimidin-4-one] |
| 7.24 | C[C@@H]1CN(Cc2ccc(C#N)cc2)C[C@H]1c1nc2c(cnn2C2CCCC2)c(=O)[nH]1 (racemic) [Example 193, 4-{[(3,4-trans)-3-(1-cyclopentyl-4-oxo-4,5-dihydro-1H-pyrazolo[3,4-d]pyrimidin-6-yl)-4-methylpyrrolidin-1-yl]methyl}benzonitrile] |
| 7.26 | COc1ccc(F)c(CN2C[C@@H](C)[C@H](c3nc4c(cnn4C4CCCC4)c(=O)[nH]3)C2)c1 (racemic) [Example 194, 1-cyclopentyl-6-[(3,4-trans)-1-(2-fluoro-5-methoxybenzyl)-4-methylpyrrolidin-3-yl]-1,5-dihydro-4H-pyrazolo[3,4-d]pyrimidin-4-one] |
| 7.27 | Cc1cc(C)cc(CN2C[C@@H](C)[C@H](c3nc4c(cnn4C4CCCC4)c(=O)[nH]3)C2)c1 (racemic) [Example 197, 1-cyclopentyl-6-[(3,4-trans)-1-(3,5-dimethylbenzyl)-4-methylpyrrolidin-3-yl]-1,5-dihydro-4H-pyrazolo[3,4-d]pyrimidin-4-one] |
| 7.45 | C[C@@H]1CN(Cc2nc3ccccc3n2C)C[C@H]1c1nc2c(cnn2C2CCCC2)c(=O)[nH]1 (racemic) [Example 199, 1-cyclopentyl-6-{(3,4-trans)-4-methyl-1-[(1-methyl-1H-benzimidazol-2-yl)methyl]pyrrolidin-3-yl}-1,5-dihydro-4H-pyrazolo[3,4-d]pyrimidin-4-one] |
| 8.02 | COc1cccc(CN2C[C@@H](C)[C@H](c3nc4c(cnn4C4CCCC4)c(=O)[nH]3)C2)c1 (racemic) [Example 204, 1-cyclopentyl-6-[(3,4-trans)-1-(3-methoxybenzyl)-4-methylpyrrolidin-3-yl]-1,5-dihydro-4H-pyrazolo[3,4-d]pyrimidin-4-one] |
| 7.16 | COc1ccc(CN2C[C@@H](C)[C@H](c3nc4c(cnn4C4CCCC4)c(=O)[nH]3)C2)c(OC)c1 (racemic) [Example 206, 1-cyclopentyl-6-[(3,4-trans)-1-(2,4-dimethoxybenzyl)-4-methylpyrrolidin-3-yl]-1,5-dihydro-4H-pyrazolo[3,4-d]pyrimidin-4-one] |
| 7.34 | C[C@@H]1CN(Cc2ccc(CN3CCOCC3)cc2)C[C@H]1c1nc2c(cnn2C2CCCC2)c(=O)[nH]1 (racemic) [Example 207, 1-cyclopentyl-6-{(3,4-trans)-4-methyl-1-[4-(morpholin-4-ylmethyl)benzyl]pyrrolidin-3-yl}-1,5-dihydro-4H-pyrazolo[3,4-d]pyrimidin-4-one] |
| 8.15 | C[C@@H]1CN(Cc2ccc3nsnc3c2)C[C@H]1c1nc2c(cnn2C2CCCC2)c(=O)[nH]1 (racemic) [Example 208, 6-[(3,4-trans)-1-(2,1,3-benzothiadiazol-5-ylmethyl)-4-methylpyrrolidin-3-yl]-1-cyclopentyl-1,5-dihydro-4H-pyrazolo[3,4-d]pyrimidin-4-one] |
